The values that follow are results of earlier work, collected in US20170058282A1 (priority 2015, published 2017).

The subject of this series is heme sensor system HssRS (histidine kinase HssS / response regulator HssR). The following applies: natural HssRS; cited from earlier work.

Molecules are shown by their SMILES.

`C=CC1=C(C)c2cc3[nH]c(cc4nc(cc5[nH]c(cc1n2)c(C)c5CCC(=O)O)C(CCC(=O)O)=C4C)c(C)c3C=C.[Fe+2]` [heme]: the “responsive concentrations of heme” value was “sub-μM”.
